Values of other authors, collected in patent US7468434B2, “Diazene-bridge crown ether lithium compounds and methods for their use” (The University of Hong Kong, priority 2004, dated 2008).

Test system: retinal ganglion cells
Details: ocular hypertensive model

lithium chloride
prevention of degeneration of RGC: could prevent degeneration of RGC
